Laboratory results taken from patent US11427567B2, “Imidazolyl pyrimidinylamine compounds as CDK2 inhibitors” (Incyte Corporation, priority 2019, dated 2022).

Target: CDK2/Cyclin E1 (Homo sapiens (Human), UniProt P24941)
Assay: CDK2/Cyclin E1 HTRF enzyme activity assay (Example A)
Format: biochemical
Details: 1 mM ATP
Description: Assays were conducted in white 384-well polystyrene plates in a final reaction volume of 8 μL. […] HTRF signals were read after 1 hour at room temperature on a PHERAstar FS plate reader (BMG Labtech). Data was analyzed with IDBS XLFit and GraphPad Prism 5.0 software using a three or four parameter dose response curve to determine IC50 for each compound.

IC50, ≤ 50 nM:
Cc1nc(-c2nc(NC3CCN(S(C)(=O)=O)CC3)ncc2C(F)(F)F)cn1-c1ccc(N2CCC(N3CCC(O)C3)CC2)cc1F (stereo not shown) [Example 455, 1-(1-(3-Fluoro-4-(2-methyl-4-(2-((1-(methylsulfonyl)piperidin-4-yl)amino)-5-(trifluoromethyl)pyrimidin-4-yl)-1H-imidazol-1-yl)phenyl)piperidin-4-yl)pyrrolidin-3-ol]
C[C@@H]1CN(S(C)(=O)=O)CC[C@@H]1Nc1ncc(C(F)(F)F)c(-c2cn(-c3ccc4nccnc4c3Br)cn2)n1 [Example 156, 4-(1-(5-Bromoquinoxalin-6-yl)-1H-imidazol-4-yl)-N-((3R,4S)-3-methyl-1-(methylsulfonyl)piperidin-4-yl)-5-(trifluoromethyl)pyrimidin-2-amine]
C[C@@]1(O)CCN(Cc2ccc(-n3cnc(-c4nc(N[C@@H]5CCN(S(C)(=O)=O)C[C@H]5F)ncc4C(F)(F)F)c3)c(Cl)c2)C1 [Example 397, (R)-1-(3-Chloro-4-(4-(2-(((3R,4R)-3-fluoro-1-(methylsulfonyl)piperidin-4-yl)amino)-5-(trifluoromethyl)pyrimidin-4-yl)-1H-imidazol-1-yl)benzyl)-3-methylpyrrolidin-3-ol]
CCN1CCN(Cc2ccc(-n3cc(-c4nc(N[C@H]5CCN(S(C)(=O)=O)C[C@H]5F)ncc4C(F)(F)F)nc3C)c(F)c2)CC1 [Example 445, 4-(1-(4-((4-Ethylpiperazin-1-yl)methyl)-2-fluorophenyl)-2-methyl-1H-imidazol-4-yl)-N-((3R,4S)-3-fluoro-1-(methylsulfonyl)piperidin-4-yl)-5-(trifluoromethyl)pyrimidin-2-amine]
CCNCc1ccc(-n2cc(-c3nc(NC4CCN(S(C)(=O)=O)CC4)ncc3C(F)(F)F)nc2C)c(F)c1 [Example 359, 4-(1-(4-((Ethylamino)methyl)-2-fluorophenyl)-2-methyl-1H-imidazol-4-yl)-N-(1-(methylsulfonyl)piperidin-4-yl)-5-(trifluoromethyl)pyrimidin-2-amine]
Cc1nc(-c2nc(NC3CCN(S(C)(=O)=O)CC3)ncc2C(F)(F)F)cn1-c1ccc(CN2CC(O)C2)cc1F [Example 355, 1-(3-Fluoro-4-(2-methyl-4-(2-((1-(methylsulfonyl)piperidin-4-yl)amino)-5-(trifluoromethyl)pyrimidin-4-yl)-1H-imidazol-1-yl)benzyl)azetidin-3-ol]
CCCc1ccc(-n2cnc(-c3nc(NC4CCN(S(C)(=O)=O)CC4)ncc3C(F)(F)F)c2)c(C#N)n1 [Example 94, 3-(4-(2-((1-(Methylsulfonyl)piperidin-4-yl)amino)-5-(trifluoromethyl)pyrimidin-4-yl)-1H-imidazol-1-yl)-6-propylpicolinonitrile]
CCNCc1cc(F)c(-n2cnc(-c3nc(N[C@@H]4CCN(S(C)(=O)=O)C[C@H]4F)ncc3C(F)(F)F)c2)c(Cl)c1 [Example 406, 4-(1-(2-Chloro-4-((ethylamino)methyl)-6-fluorophenyl)-1H-imidazol-4-yl)-N-((3R,4R)-3-fluoro-1-(methylsulfonyl)piperidin-4-yl)-5-(trifluoromethyl)pyrimidin-2-amine]
CS(=O)(=O)N1CC[C@H](Nc2ncc(C(F)(F)F)c(-c3cn(-c4cccnc4C(F)F)cn3)n2)[C@H](F)C1 [Example 50, 4-(1-(2-(Difluoromethyl)pyridin-3-yl)-1H-imidazol-4-yl)-N-((3R,4S)-3-fluoro-1-(methylsulfonyl)piperidin-4-yl)-5-(trifluoromethyl)pyrimidin-2-amine]
Cc1ccc(-n2cnc(-c3nc(N[C@H]4CCN(S(=O)(=O)c5ccn(C)n5)C[C@H]4C)ncc3C(F)(F)F)c2)c(C#N)n1 [Example 154, 6-Methyl-3-(4-(2-(((3R,4S)-3-methyl-1-((1-methyl-1H-pyrazol-3-yl)-sulfonyl)piperidin-4-yl)amino)-5-(trifluoromethyl)-pyrimidin-4-yl)-1H-imidazol-1-yl)picolinonitrile]
